{
  "source": "patent US8389509B2",
  "about": "“Substituted pyrazole compounds” (Bristol-Myers Squibb Company, priority 2009, dated 2013)",
  "key": {"[1]": {"target": "T1, S1P1 (Homo sapiens, UniProt P21453)", "T1 construct": "expressed in transfected cells; host or cells: CHO cells", "T1 sequence (P21453 whole entry)": "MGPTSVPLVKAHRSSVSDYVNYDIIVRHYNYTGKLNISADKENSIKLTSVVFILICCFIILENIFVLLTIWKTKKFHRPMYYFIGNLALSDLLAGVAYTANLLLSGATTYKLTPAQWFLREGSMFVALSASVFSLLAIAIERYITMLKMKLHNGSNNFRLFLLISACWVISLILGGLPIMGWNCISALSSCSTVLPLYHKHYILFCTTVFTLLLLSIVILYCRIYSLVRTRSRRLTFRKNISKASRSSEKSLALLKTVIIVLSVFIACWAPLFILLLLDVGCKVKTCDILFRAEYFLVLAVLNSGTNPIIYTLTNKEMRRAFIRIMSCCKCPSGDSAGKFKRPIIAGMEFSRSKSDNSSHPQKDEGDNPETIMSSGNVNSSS", "assay": "Method B: Receptor [35S] GTPγS SPA Binding Assay, S1P1", "format": "biochemical", "protocol": "Method B: Receptor [^35S] GTPγS SPA Binding Assays\nMembranes prepared from S1P1 or S1P3 transfected CHO cells (2 μg protein) were incubated in 96-well white plates (CORNING® 3693) with test compounds diluted in DMSO, in 50 μl of reaction mixture containing 7.5 μA WGA-PVT beads (20 mg/ml), and 5 μM GDP, 20 mM HEPES pH 7.4, 100 mM NaCl, 1 mM EDTA, 5 mM MgCl2, 10 μg/ml saponin, 0.1% BSA, and 1 μM leupeptin. The assay was initiated with the addition of […] of 0.2 nM [^35S]-GTPγS (1250 Ci/mmol; NEN) in assay buffer. After 90 min incubation at room temperature, spin the plate at 1000 rpm for 5 min. The bound radionuclides were measured at TOPCOUNT®, expressed as % response relative to S1P (1 μM) activation. Data was analyzed using the four parameter logistic equation in Excel. The four parameters in the equation, Y=A+((B−A)/(1+((EC50/X)^D))), are described as following: A is the Y value (agonist activity) at the bottom plateau; B is the Y value at the top plateau; EC50 is the X value (agonist concentration) when the response is halfway between bottom and top; D is Hill coefficient. Curves were not generated for compounds having Ymax values were below 50%.\n(§1) Compounds of the present invention and Comparative Compound A were tested in the Receptor [^35S] GTPγS Binding Assays (Method A) and Receptor [^35S] In some instances, the value is an average of multiple experiments where N is the number of experiments conducted that provided satisfactory dose response curves. When more than one batch of an example was tested, the value presented is from a batch which allowed a comparison of GTPγS S1P1 and GTPγS S1P3 in which the most number of experiments were performed. Preferably, the same batch was examined in Method A and Method B. Data was not averaged across different batches of an example compound."}, "[2]": {"system": "C57BL/6 mice", "assay": "Mouse Experimental Autoimmune Encephalomyelitis Assay (EAE)", "format": "in vivo", "settings": "for Clinical Score on Day 24, Mean: vehicle mean 2.63", "protocol": "Mouse Experimental Autoimmune Encephalomyelitis Assay (EAE)\nMice (C57BL/6 female, 6-8 weeks of age, Charles River, n=10-12 treatment group) were immunized subcutaneously with 150 μg MOG35-55 emulsified 1:1 with […] Freund's adjuvant (sigma) supplemented with 150 μg Mycobacterium tuberculosis H37RA (Difco Laboratories). 400 ng of pertussis toxin (CalBiochem) was injected intraperitoneally on the day of immunization and two days later. Animals were dosed once daily with the test article (as a solution or suspension in the vehicle) or vehicle alone (polyethylene glycol 300, “PEG300”) starting from 1 day after immunization. Clinical scoring and body weight were taken 3 times per week until the end of the study on day 24. Clinical scoring system: 0.5: partial tail weakness; 1: limp tail or waddling gait with tail tonicity; 1.5: waddling gait with partial tail weakness; 2: waddling gait with limp tail (ataxia); 2.5: ataxia with partial limb paralysis; 3: full paralysis of one limb; 3.5: full paralysis of one limbs with partial paralysis of a second limb; 4: full paralysis of two limbs; 4.5: moribund; 5: death. A compound of the present invention was tested in the Mouse Experimental Autoimmune Encephalomyelitis assay described hereinabove and the results are shown in Table H."}, "[3]": {"system": "circulating lymphocytes", "assay": "Blood Lymphocyte Reduction Assay (BLR) in rats", "format": "in vivo, Lewis rats", "settings": "oral", "protocol": "(§2) Blood Lymphocyte Reduction Assay (BLR) in Rodents\n(§3) Lewis rats or BALB/c mice were dosed orally with test article (as a solution or suspension in the vehicle) or vehicle alone (polyethylene glycol 300, “PEG300”). Blood was drawn at 4 hr and 24 h by retro-orbital bleeding. Blood lymphocyte counts were determined on an ADVIA 120 Hematology Analyzer (Siemens Healthcare Diagnostics). The results were measured as a reduction in the percentage of circulating lymphocytes as compared to the vehicle treated group at the 4 hr and 24 hr measurement. The results represent the average results of all animals within each treatment group (n=3-4).\n(§4) Compounds of the present invention were tested in the Blood Lymphocyte Reduction assay (BLR) described hereinabove and the results are shown in Table D for rats and Table E for mice."}, "[4]": {"target": "T1, S1P1", "assay": "Method A: Receptor [35S] GTPγS Binding Assay, S1P1", "format": "biochemical", "protocol": "(§5) Method A: Receptor [35S] GTPγS Binding Assays\n(§6) Compounds were loaded in a 384 FALCON® v-bottom plate (0.5 μl/well in a 3-fold dilution). Membranes prepared from S1P1/CHO cells or EDG3-Gal5-bla HEK293T cells were added to the compound plate (40 μl/well, final protein 3 μg/well) with MULTIDROP®. [^35S]GTP (1250 Ci/mmol, Perkin Elmer) was diluted in assay buffer: 20 mM HEPES, pH7.5, 10 mM MgCl2, 150 mM NaCl, 1 mM EGTA, 1 mM DTT, 10 μM GDP, 0.1% fatty acid free BSA, and 10 μg/ml Saponin to 0.4 nM. 40 μl of the [^35S] GTP solution was added to the compound plate with a final concentration of 0.2 nM. The reaction was kept at room temperature for 45 min. At the end of incubation, all the mixtures in the compound plate were transferred to a 384 well FB filter plates via GPCR robot system. The filter plate was washed with water 4 times by using the modified manifold Embla plate washer and dried at 60° C. for 45 min. 30 μA of MicroScint 20 scintillation fluid was added to each well for counting at Packard TOPCOUNT®. EC50 is defined as the agonist concentration that corresponds to 50% of the Ymax (maximal response) obtained for each individual compound tested.\nas §1"}, "[5]": {"system": "circulating lymphocytes", "assay": "Blood Lymphocyte Reduction Assay (BLR) in mice", "format": "in vivo, BALB/c mice", "settings": "oral", "protocol": "as §2, §3, §4"}, "[6]": {"target": "S1P3 (Homo sapiens, UniProt Q99500)", "sequence (Q99500 whole entry)": "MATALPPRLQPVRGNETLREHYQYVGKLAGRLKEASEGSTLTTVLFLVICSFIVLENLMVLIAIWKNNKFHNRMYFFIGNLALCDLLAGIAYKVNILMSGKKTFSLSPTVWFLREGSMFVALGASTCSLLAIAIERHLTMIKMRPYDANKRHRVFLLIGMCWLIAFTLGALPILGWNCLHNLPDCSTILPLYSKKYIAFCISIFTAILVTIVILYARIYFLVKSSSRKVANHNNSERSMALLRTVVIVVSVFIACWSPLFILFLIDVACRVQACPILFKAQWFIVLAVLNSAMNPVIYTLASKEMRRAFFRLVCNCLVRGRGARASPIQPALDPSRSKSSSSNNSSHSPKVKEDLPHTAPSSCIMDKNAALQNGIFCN", "assay": "Method A: Receptor [35S] GTPγS Binding Assay, S1P3", "format": "biochemical", "parameters": "expressed in transfected cells", "settings": "EDG3-Gal5-bla HEK293T cell membranes", "protocol": "as §5, §6, §1"}},
  "data": [
    {"smiles": "O=C(O)C1CN(Cc2ccc(-c3noc(-c4cnn(-c5ccccn5)c4C(F)(F)F)n3)cc2)C1", "note": "[Example 1, 1-(4-(5-(1-(Pyridin-2-yl)-5-(trifluoromethyl)-1H-pyrazol-4-yl)-1,2,4-oxadiazol-3-yl)benzyl)azetidine-3-carboxylic acid]", "values": [
      {"measurement": "EC50", "setting": "[1]; Method B (SPA), S1P1 transfected CHO cell membranes", "value": 0.5, "unit": "nM"},
      {"measurement": "GTPγS S1P3/S1P1 (Method B)", "setting": "[1]; ratio of S1P3 EC50 to S1P1 EC50, Method B", "value": "8,800"},
      {"measurement": "Clinical Score on Day 24, Mean", "setting": "[2]; 1.0 mg/kg once daily", "value": 0.32},
      {"measurement": "Clinical Score on Day 24, Mean", "setting": "[2]; 3.0 mg/kg once daily", "value": 0.77},
      {"measurement": "Clinical Score on Day 24, Mean", "setting": "[2]; 10.0 mg/kg once daily", "value": 0.30},
      {"measurement": "disease progression as determined by the clinical scores", "setting": "[2]; C57Bl/6 mice, prophylactic oral dosing", "value": "inhibits disease progression"},
      {"measurement": "% reduction in lymphocytes at 4 hr.", "setting": "[3]; 0.04 mg/kg", "value": 49, "unit": "%"},
      {"measurement": "% reduction in lymphocytes at 24 hr.", "setting": "[3]; 0.04 mg/kg", "value": 6, "unit": "%"},
      {"measurement": "% reduction in lymphocytes at 4 hr.", "setting": "[3]; 0.2 mg/kg", "value": 77, "unit": "%"},
      {"measurement": "% reduction in lymphocytes at 24 hr.", "setting": "[3]; 0.2 mg/kg", "value": 15, "unit": "%"},
      {"measurement": "% reduction in lymphocytes at 4 hr.", "setting": "[3]; 1.0 mg/kg", "value": 86, "unit": "%"},
      {"measurement": "% reduction in lymphocytes at 24 hr.", "setting": "[3]; 1.0 mg/kg", "value": 61, "unit": "%"},
      {"measurement": "% reduction in lymphocytes at 4 hr.", "setting": "[3]; 3.0 mg/kg", "value": 81, "unit": "%"},
      {"measurement": "% reduction in lymphocytes at 24 hr.", "setting": "[3]; 3.0 mg/kg", "value": 75, "unit": "%"},
      {"measurement": "EC50", "setting": "[4]; Method A, S1P1/CHO cell membranes", "value": 2.9, "unit": "nM"},
      {"measurement": "GTPγS S1P3/S1P1 (Method A)", "setting": "[4]; ratio of S1P3 EC50 to S1P1 EC50, Method A", "value": "2,300"},
      {"measurement": "% reduction in lymphocytes at 4 hr.", "setting": "[5]; 0.3 mg/kg", "value": 74, "unit": "%"},
      {"measurement": "% reduction in lymphocytes at 24 hr.", "setting": "[5]; 0.3 mg/kg", "value": 30, "unit": "%"},
      {"measurement": "% reduction in lymphocytes at 4 hr.", "setting": "[5]; 1.0 mg/kg", "value": 85, "unit": "%"},
      {"measurement": "% reduction in lymphocytes at 24 hr.", "setting": "[5]; 1.0 mg/kg", "value": 68, "unit": "%"},
      {"measurement": "% reduction in lymphocytes at 4 hr.", "setting": "[5]; 3.0 mg/kg", "value": 85, "unit": "%"},
      {"measurement": "% reduction in lymphocytes at 24 hr.", "setting": "[5]; 3.0 mg/kg", "value": 76, "unit": "%"},
      {"measurement": "% reduction in lymphocytes at 4 hr.", "setting": "[5]; 10.0 mg/kg", "value": 84, "unit": "%"},
      {"measurement": "% reduction in lymphocytes at 24 hr.", "setting": "[5]; 10.0 mg/kg", "value": 88, "unit": "%"},
      {"measurement": "EC50", "setting": "[6]", "value": 6.7, "unit": "µM"}
    ]}
  ]
}
